Data from ChEMBL document CHEMBL5050843, “Amide substituted thiazoles as protein secretion inhibitors” (2019).

Key:
[1] = Inhibition of constitutively active VCAMss-Gluc secretion in human Flp-In-T-REx-293 cells measured by Gaussia luciferase reporter gene method; format: functional, cell-based
[2] = Inhibition of TNF-alpha-FL-Gluc secretion in doxycyclin-induced human Flp-In-T-REx-293 cells measured by Gaussia luciferase reporter gene method; format: functional, cell-based
[3] = Inhibition of PR1ss-Gluc secretion in doxycyclin-induced human Flp-In-T-REx-293 cells measured by Gaussia luciferase reporter gene method; format: functional, cell-based
[4] = Inhibition of PD1ss-Gluc secretion in doxycyclin-induced human Flp-In-T-REx-293 cells measured by Gaussia luciferase reporter gene method; format: functional, cell-based
[5] = Inhibition of constitutively active VCAMss-Gluc secretion in human Flp-In-T-REx-293 cells at 2 uM measured by Gaussia luciferase reporter gene method relative to control; format: functional
[6] = Inhibition of constitutively active PR1ss-Gluc secretion in human Flp-In-T-REx-293 cells measured by Gaussia luciferase reporter gene method; format: functional, cell-based
[7] = Inhibition of VCAMss-Gluc secretion in doxycyclin-induced human Flp-In-T-REx-293 cells measured by Gaussia luciferase reporter gene method; format: functional, cell-based

Compound	IC50 [1] [µM]	IC50 [2] [µM]	IC50 [3] [µM]	IC50 [4] [µM]	inhibition at 2 µM [5] [%]	further results
CC(C)(C)c1csc(NC(=O)c2ccc(Cl)s2)n1	2	8	–	–	–	–
CC(C)(C)Cc1csc(NC(=O)Cc2cn(Cc3ccccc3Cl)c3ccc(Cl)cc23)n1	–	> 25	> 25	6.18	–	–
CC(C)(C)c1csc(NC(=O)Cc2cn(Cc3ccccc3)c3cc(Cl)ncc23)n1	–	23.7	20.7	8.34	–	–
CN(C(=O)c1cc2c(s1)CCCC2)c1nc(C(C)(C)C)cs1	–	–	–	–	19	–
Cc1ccc(S(=O)(=O)Nc2nc(C(C)(C)C)cs2)cc1	–	–	–	–	0	–
C[C@@H](c1ccccc1Cl)n1cc(CC(=O)Nc2nc(C(C)(C)C)cs2)c2cc(Cl)ccc21	–	> 25	> 25	0.875	–	–
CC(C)(C)c1csc(NC(=O)Cc2cn(CC(=O)Nc3ccccc3O)c3ccc(Cl)cc23)n1	–	17.7	19.1	10.4	–	–
Cc1ccc2c(CC(=O)Nc3nc(C(C)(C)C)cs3)csc2c1	6.82	–	> 25	22.2	–	IC50 [6]: > 25 µM; IC50 [7]: 5.9 µM
CC(C)(C)c1csc(NC(=O)Cc2cn(Cc3nc4ccccc4o3)c3ccc(Cl)cc23)n1	–	> 25	> 25	9.71	–	–
CC(C)(C)c1csc(NC(=O)c2csc3c2CCCC3)n1	14	73	–	–	–	–
COc1ccc2cc(C(=O)Nc3nc(C(C)(C)C)cs3)sc2c1	1.8	> 80	–	–	–	–
CC(C)(C)c1csc(NC(=O)N2CCCOCC2)n1	–	–	–	–	0	–
CCCc1csc(NC(=O)c2cc3c(s2)CCCC3)n1	2.6	> 80	–	–	–	–
CC(C)(C)c1csc(NC(=O)Cc2cn(Cc3ncco3)c3ccc(Cl)cc23)n1	–	> 25	> 25	23.5	–	–
CC(C)c1csc(NC(=O)c2cc3c(s2)CCCC3)n1	1.2	> 80	–	–	–	–
CC(C)(C)c1csc(NC(=O)Cc2cn(C3CCCCC3)c3ccc(Cl)cc23)n1	–	> 25	> 25	3.36	–	–
CC(C)(C)c1csc(NC(=O)Nc2nc(C(C)(C)C)cs2)n1	–	–	–	–	19	–
CC(C)(C)c1csc(NC(=O)Cc2cn(Cc3ccon3)c3ccc(Cl)cc23)n1	–	> 25	–	10.3	–	–
CC1(C)CCc2sc(NC(=O)c3cc4c(s3)CCCC4)nc21	0.4	> 80	–	–	–	–
CC(C)(C)c1csc(NC(=O)Cc2cn(Cc3ccccc3)c3ccncc23)n1	–	> 25	> 25	8.6	–	–
CC(C)(C)c1csc(NC(=O)C2CCCCC2)n1	9.8	–	–	–	30	IC50 [6]: > 25 µM
CC(C)(C)c1csc(NC(=O)Cc2cn(Cc3ccncc3)c3ccc(Cl)cc23)n1	1.41	11	> 25	2.76	–	IC50 [6]: > 25 µM
CCC1CCc2sc(C(=O)Nc3nc(C(C)(C)C)cs3)cc2C1 (centres undefined)	7.9	> 80	–	–	–	–
CC(C)(C)c1csc(NC(=O)c2ccc(-c3cccc([N+](=O)[O-])c3)s2)n1	–	–	–	–	59	–
CCC(C)(C)c1csc(NC(=O)Cc2cn(Cc3ccccc3)c3ccc(Cl)cc23)n1	0.109	9.8	> 25	2.2	–	IC50 [6]: > 25 µM

Compound	IC50 [1] [µM]	IC50 [2] [µM]	IC50 [3] [µM]	IC50 [4] [µM]	inhibition at 2 µM [5] [%]	further results
CC(C)(C)c1csc(NC(=O)Cc2cn(Cc3ccccc3)c3ncccc23)n1	–	> 25	> 25	12.2	–	–
CN(C)CC#Cc1ccc(C(=O)Nc2nc(C(C)(C)C)cs2)s1	–	–	–	–	76	–
CC(C)(C)C(=O)Nc1nc(C(C)(C)C)cs1	–	–	–	–	0	–
CC(C)(C)c1csc(NC(=O)Cc2cn(Cc3ccc(F)cc3Cl)c3ccc(Cl)cc23)n1	–	> 25	> 25	1.15	–	–
Cc1ccc(C(=O)Nc2nc(C(C)(C)C)cs2)cc1	–	–	–	–	9	–
O=C(Nc1nc(C2CC2)cs1)c1cc2c(s1)CCCC2	11	> 80	–	–	–	–
CC(C)(C)c1csc(NC(=O)c2ccc(C#CCCCCCCCCO)s2)n1	–	–	–	–	52	–
Cn1c(C(C)(C)C)cs/c1=N\C(=O)c1cc2c(s1)CCCC2	–	–	–	–	63	–
Cc1cc(C(=O)Nc2nc(C(C)(C)C)cs2)cn1Cc1ccccc1	–	> 25	> 25	4.74	–	–
CC(C)(C)c1csc(NC(=O)c2cc3c(s2)CCC3)n1	1	18	–	–	–	–
CC(C)(C)c1csc(NC(=O)c2ccc(-c3cc(Cl)cc(Cl)c3)s2)n1	–	–	–	–	35	–
CC(C)OC(C)(C)c1csc(NC(=O)Cc2cn(Cc3ccccc3Cl)c3ccc(Cl)cc23)n1	–	14.8	> 25	0.715	–	–
CC(C)(C)c1csc(NC(=O)c2ccc(C#CCN3CCOCC3)s2)n1	–	–	–	–	38	–
CC(C(=O)Nc1nc(C(C)(C)C)cs1)c1cn(Cc2ccccc2)c2ccc(Cl)cc12 (centres undefined)	–	> 25	> 25	6.06	–	–
Cc1cc(Cn2cc(CC(=O)Nc3nc(C(C)(C)C)cs3)c3cc(Cl)ccc32)ccn1	–	> 25	24	6.1	–	–
Cc1cnccc1Cn1cc(CC(=O)Nc2nc(C(C)(C)C)cs2)c2cc(Cl)ccc21	–	19.1	> 25	2.68	–	–
COC(C)(C)c1csc(NC(=O)Cc2cn(Cc3ccccc3Cl)c3ccc(Cl)cc23)n1	–	13.6	> 25	1.04	–	–
CC(C)(C)c1csc(NC(=O)c2cc3ccc(Br)cc3s2)n1	3.3	> 80	–	–	–	–
CC(C)(C)c1csc(NC(=O)N2CCOc3ccccc3C2)n1	10.1	–	–	–	24	IC50 [6]: > 25 µM
CC(C)(C)c1csc(NC(=O)Cc2cn(Cc3ccc(C(N)=O)cc3)c3ccc(Cl)cc23)n1	–	> 25	> 25	8.84	–	–
Cc1cc(C(=O)Nc2nc(C(C)(C)C)cs2)sc1-c1ccccc1	4.5	31	–	–	–	–
C#Cc1ccc(C(=O)Nc2nc(C(C)(C)C)cs2)s1	–	–	–	–	66	–
CC(C)(C)c1csc(NC(=O)c2ccc(CCCO)s2)n1	–	–	–	–	31	–
CC(O)CCc1ccc(C(=O)Nc2nc(C(C)(C)C)cs2)s1 (centres undefined)	–	–	–	–	30	–
CC(C)(C)c1csc(NC(=O)c2cc3c(s2)CCCC3)n1	5.35	22.7	> 25	4.44	–	IC50 [6]: > 25 µM

Compound	IC50 [1] [µM]	IC50 [2] [µM]	IC50 [3] [µM]	IC50 [4] [µM]	inhibition at 2 µM [5] [%]	further results
CCC(C)(C)c1csc(NC(=O)Cc2cn(Cc3ccccc3Cl)c3ccc(Cl)cc23)n1	–	> 24.2	> 25	0.727	–	–
CC(C)(C)c1nsc(NC(=O)c2cc3c(s2)CCCC3)n1	0.43	4.7	–	–	–	–
O=C(Nc1nc(-c2ccc(C(F)(F)F)cc2)cs1)c1cc2c(s1)CCCC2	–	–	–	–	3	–
Cc1cccc2c(CC(=O)Nc3nc(C(C)(C)C)cs3)csc12	2.42	–	> 25	20.4	–	IC50 [6]: > 25 µM; IC50 [7]: 3.56 µM
CC(C)(C)c1csc(NC(=O)Cc2cn(Cc3ncccn3)c3ccc(Cl)cc23)n1	–	> 25	> 25	23.3	–	–
CC(C)(C)c1csc(NC(=O)Cc2cn(C3CCc4ccccc43)c3ccc(Cl)cc23)n1 (centres undefined)	–	> 25	> 25	6.62	–	–
CC(c1ccccc1Cl)n1cc(CC(=O)Nc2nc(C(C)(C)C)cs2)c2cc(Cl)ccc21 (centres undefined)	–	> 25	> 25	1.55	–	–
CC(C)(C)c1csc(NC(=O)Cc2cn(Cc3cocn3)c3ccc(Cl)cc23)n1	–	> 25	–	22	–	–
CC(C)(C)c1csc(NC(=O)Cc2cn(Cc3ccc(C#N)cc3)c3ccc(Cl)cc23)n1	–	23.8	> 25	4.14	–	–
CC(C)(C)c1csc(NC(=O)Cc2cn(Cc3ccccc3Cl)c3ccc(Cl)cc23)n1	0.147	> 25	> 25	1.15	–	IC50 [6]: > 25 µM
CC(C)(C)c1csc(NC(=O)c2ccc(-c3cccnc3)s2)n1	–	–	–	–	19	–
CC(C)(C)c1csc(NC(=O)c2cc3c([nH]2)CCCC3)n1	2.5	> 80	–	–	–	–
C[C@H](c1ccccc1Cl)n1cc(CC(=O)Nc2nc(C(C)(C)C)cs2)c2cc(Cl)ccc21	–	> 25	> 25	4.16	–	–
CC(C)(C)c1csc(NC(=O)c2ccc(C#CCCCN3CCOCC3)s2)n1	–	–	–	–	45	–
CC(O)C#Cc1ccc(C(=O)Nc2nc(C(C)(C)C)cs2)s1 (centres undefined)	–	–	–	–	24	–
CC(C)(C)c1csc(NC(=O)c2ccc(C#CCCCO)s2)n1	–	–	–	–	53	–
CC(C)(C)c1csc(NC(=O)c2cc(Br)cs2)n1	14	72	–	–	–	–
CC(C)(C)c1csc(NC(=O)c2ccc(C#C[Si](C)(C)C)s2)n1	–	–	–	–	54	–
CC(C)(C)c1csc(NC(=O)c2ccc3c(c2)CCCC3)n1	10.9	–	–	–	20	IC50 [6]: > 25 µM
CC(C)(C)c1csc(NC(=O)c2ccc(C#CCO)s2)n1	–	–	–	–	80	–
CC(C)(C)c1csc(NC(=O)Cc2cn(Cc3c(F)cccc3Cl)c3ccc(Cl)cc23)n1	–	> 25	> 25	6.33	–	–
Cc1c(CC(=O)Nc2nc(C(C)(C)C)cs2)c2ccccc2n1Cc1ccccc1Cl	–	> 21.3	> 25	1.88	–	–
O=C(Nc1nc(C2CC3CCC(C3)C2)cs1)c1cc2c(s1)CCCC2 (centres undefined)	–	–	–	–	55	–
CC(C)(C)c1csc(NC(=O)c2cc3c(s2)CCCCC3)n1	0.58	4.3	–	–	–	–
CC(C)(C)c1csc(NC(=O)Cc2cn(Cc3ccccc3)c3nc(Cl)ccc23)n1	–	> 25	> 25	10	–	–
